Data: patent US6702803B2, “Multi-step drug dosage forms” (Delsys Pharmaceutical Corporation, priority 2000, dated 2004)

Experiment: Compatibility study of Drug A with polymeric films (chromatographic purity on storage)
Type: physicochemical
Details: HPMC film, HPMC/HPC blend film, polyvinyl alcohol film; 25°C/60% RH, 40°C/75% RH (closed and open bottle), 50°C; 2 to 12 weeks
Method: Compatibility studies were conducted to assess the compatibility of Drug A with several polymeric films, to determine an appropriate material for the substrate. The films studied were an HPMC film, an. HPMC/HPC blend film, and a polyvinyl alcohol film. Each film was cut into pieces approximately 0.5 cm square and a piece of each film was placed into a glass bottle. Approximately 500 mg of Drug A was added to each bottle. The bottles were closed with Teflon lined plastic caps. Bottles of Drug A and each of the films separately were prepared and used as controls. The controls and drug/polymer samples were stored in a closed chamber under the following conditions, and tested at the indicated time periods: A) 25° C.±2° C.; 60% RH±5%; tested at 2,4 and 12 weeks; B) 40° C.±2° C.; 75% RH±5%; tested at 2,4 and 12 weeks; C) 40° C.±2 S^C; 75% RH±5%, open bottle; tested at 2, 4 and 12 weeks; and D) 50° C.±2*C.; no humidity control; tested at 2,4, and 8 weeks. At each time point, the samples were tested for chromatographic purity. […] Several dosage forms were made, as outlined in Table 1. “ER” refers to the extended release portion. “HPMC, HPC” refers to a hydroxypropyrmethyl cellulose, hydroxypropyl cellulose copolymer. “PEO” refers to a polyethylene oxide polymer, “HPMC, PEG” refers to hydroxypropylmethyl cellulose containing polyethylene glycol (PEG) plasticizer.

change in chromatographic purity of Drug A stored with polymer films, compared to control samples: no changes in purity
SMILES: Cc1nccn1CC1CCc2c(c3ccccc3n2C)C1=O (stereo not shown) [Drug A, 1,2,3,9-tetrahydro-9-methyl-3-[(2-methyl-1H-imidazol-1-yl)methyl]-4H-carbazol-4-one]
